The source of these data is paper PMC4552634, “A New Set of Chemical Starting Points with Plasmodium falciparum Transmission-Blocking Potential for Antimalarial Drug Discovery” (PLoS ONE, 2015).

For orientation: IC50 means the concentration at which inhibition is half-maximal.

Data set [1] concerns P. falciparum stage V gametocytes. Put plainly: Gametocytocidal ATP bioluminescence assay (single point 5 μM and 1 μM, dose-response). The conditions noted are these: for Ratio IC50 HepG2/IC50 P. falciparum: IC50 HepG2 divided by IC50 P. falciparum gametocytes. Format: cell-based, Plasmodium falciparum.
Protocol: Purified stage IV-V gametocytes were obtained as previously described [10]. Single point ATP bioluminescence assay and dose–response of positive hits was determined in accordance with the previously published protocol [10].
The subject of data set [2] is luciferase reaction (BacTiter-Glo). Put plainly: Interference assay (inhibition of the BacTiter-Glo luciferase reaction). Format: biochemical. Further details: concentration or dose not given beside the values. Conditions: ATP interference assay. Here is the method: To discard possible false-positive results, we performed an interference assay in parallel. […] […]. The ATP solution was made by dissolving ATP powder (ATP standard from the ATPlite 1 step assay kit, reference 6016731, Perkin Elmer) in culture medium. The positive control used was the Luciferase Inhibitor I Calbiochem (Merck, 119113) at 100 μM.

In a further data set the test system is HepG2 cells. Description: Cytotoxicity in HepG2 cells (intracellular ATP, ATPlite, 48 h). Conditions: HepG2 cells; IC50 per ratio column head; unit inferred. In kind it is cell-based, human. (Cellular ATP, detected with luciferase, serves as a proxy for viable cell number.)
The test system of data set [3] is P. falciparum asexual stages. The conditions noted are these: asexual stages; TCAMS data; read-out: IC50 asexual; cited from earlier work.
The mark [4] stands for this setting: P. falciparum gametocytes, average, read-out: IC50 Pf Gametocytes average, IC50 (µM) average.
[5] abbreviates: sexual stages (gametocytes), dose-response, read-out: IC50 sexual.

SMILES strings stand for the structures. Where two headings read alike, the source gives them in different places. A value given as a limit tells only on which side of the number the result lay.

Take `Fc1ccc(OC2CN(c3nccc(NCc4ccccc4Cl)n3)C2)cc1` [TCMDC-135110]: the “Ratio IC50 HepG2/IC50 P. falciparum” value in data set [1] was greater than 10. The IC50 was 2.51 µM in data set [1] (setting [4]), 2.51 µM in data set [1] (setting [5]), greater than 25000 nM in the data set on HepG2 cells and 898 nM in data set [3]. Further, the “% Control luminiscence” value in data set [2] amounted to 98%.

Regarding `CN1CCN(CC2(Nc3nccc(NCCc4cn(C)c5ccccc45)n3)CCCCC2)CC1` [TCMDC-135122], in data set [1], the “Ratio IC50 HepG2/IC50 P. falciparum” value worked out at 10. The IC50 is 0.7 µM in data set [1] (setting [4]), 0.697 µM in data set [1] (setting [5]), 6940 nM with HepG2 cells and 1810 nM in data set [3]. Moreover, the “% Control luminiscence” value in data set [2] is recorded as 95%.

As for `Cc1occc1C(=O)Nc1nc(-c2ccccn2)nc2ccsc12` [TCMDC-135244], the “Ratio IC50 HepG2/IC50 P. falciparum” value in data set [1] is on record as less than 5. For the same compound, the 50% inhibitory concentration (IC50) was 0.3 µM in data set [1] (setting [4]), 0.303 µM in data set [1] (setting [5]), less than 1560 nM in the data set with HepG2 cells and 899 nM in data set [3]. Also, in data set [2], the “% Control luminiscence” value is 99%.

`Cc1cccc(-c2nc(Nc3ccncc3)c3cc(N(C)C)ccc3n2)n1` [TCMDC-135308]: the “Ratio IC50 HepG2/IC50 P. falciparum” value in data set [1] was greater than 9. For the same compound, the IC50 is 2.66 µM in data set [1] (setting [4]), greater than 25000 nM with HepG2 cells and 710 nM in data set [3]. In addition, the “% Control luminiscence” value in data set [2] came to 98%.

Take `COc1cc(NC(=O)c2sc(-c3ccc(Cl)cc3)cc2NC(=O)c2ccncc2)ccc1OCCN1CCCC1` [TCMDC-135398]: the 50% inhibitory concentration (IC50) in data set [1] (setting [4]) is 0.15 µM; in the data set on HepG2 cells, 3230 nM; in data set [3] it was 31 nM. For the same compound, the “% Control luminiscence” value in data set [2] was 100%.

With `CCN(CC)CCCNc1nccc(N2CCc3ncnc(Nc4ccc(OCc5cccc(F)c5)c(Cl)c4)c3C2)n1` [TCMDC-135406], the “Ratio IC50 HepG2/IC50 P. falciparum” value in data set [1] is reported as 8. Also, the IC50 is 0.72 µM in data set [1] (setting [4]), 0.715 µM in data set [1] (setting [5]), 5580 nM with HepG2 cells and 111 nM in data set [3]. Besides, in data set [2], the “% Control luminiscence” value amounted to 100%.

Consider `CNCCNc1nccc(N2CCc3ncnc(Nc4ccc(OCc5cccc(F)c5)c(Cl)c4)c3C2)n1` [TCMDC-135478], for which the “Ratio IC50 HepG2/IC50 P. falciparum” value in data set [1] came out at 11. Also, the IC50 in data set [1] (setting [4]) is 0.67 µM; in data set [1] (setting [5]) it was 0.665 µM; with HepG2 cells, 7160 nM; in data set [3] it was 197 nM. For the same compound, the “% Control luminiscence” value in data set [2] was determined as 98%.

Take `COC(=O)c1sc(-c2ccc(Cl)cc2)cc1N(CCCN1CCC(N2CCCCC2)CC1)S(=O)(=O)c1ccc(C)cc1` [TCMDC-135561]: the “Ratio IC50 HepG2/IC50 P. falciparum” value in data set [1] was determined as 1.3. Besides, the IC50 in data set [1] (setting [4]) is 3.36 µM; in data set [1] (setting [5]) it was 3.37 µM; in the data set on HepG2 cells, 4370 nM; in data set [3], 744 nM. Moreover, the “% Control luminiscence” value in data set [2] amounted to 93%.

Take `c1ccc2c(C3CCN(CCCCOc4ccc5c(c4)CCN(CC4CC4)CC5)CC3)c[nH]c2c1` [TCMDC-136244]: the “Ratio IC50 HepG2/IC50 P. falciparum” value in data set [1] was determined as 10. Further, the IC50 is 0.71 µM in data set [1] (setting [4]), 6810 nM in the data set with HepG2 cells and 982 nM in data set [3]. Further, the “% Control luminiscence” value in data set [2] is recorded as 100%.

In the case of `C[C@H]1CN(Cc2cccc(-c3cc(CNC(=O)c4cccc(CC5CCN(C)CC5)c4)ccc3F)c2)CCN1C` [TCMDC-136349], in data set [1], the “Ratio IC50 HepG2/IC50 P. falciparum” value is recorded as 8. Besides, the IC50 in data set [1] (setting [4]) was 0.85 µM; with HepG2 cells, 6970 nM; in data set [3], 1090 nM. Further, the “% Control luminiscence” value in data set [2] was determined as 100%.

On to `CN(C)Cc1ccc(-c2cccc(Nc3nccc(NCC(O)c4ccccc4)n3)c2)cc1` (centres unmarked) [TCMDC-136467], for which, in data set [1], the “Ratio IC50 HepG2/IC50 P. falciparum” value stood at 6.52. Moreover, the half-maximal inhibitory concentration (IC50) was 0.9 µM in data set [1] (setting [4]), 5870 nM with HepG2 cells and 373 nM in data set [3]. Besides, the “% Control luminiscence” value in data set [2] is listed as 100%.

As for `Cc1cc(OCCN2CCCCC2)ccc1NC(=O)c1cccc2c(=O)n(Cc3ccc(Cl)cc3)cnc12` [TCMDC-136727], the “Ratio IC50 HepG2/IC50 P. falciparum” value in data set [1] stood at 5. Besides, the results for the IC50 (in data set [1] (setting [4]); in the data set with HepG2 cells; in data set [3]) were 0.95 µM, 4730 nM and 1060 nM, respectively. In addition, the “% Control luminiscence” value in data set [2] is given as 97%.

As for `COc1cc2c(cc1CCNCCCCNCCc1cc3c(cc1OC)CCCC3)CCCC2` [TCMDC-137319], the “Ratio IC50 HepG2/IC50 P. falciparum” value in data set [1] is listed as less than 19. Moreover, the IC50 is 0.08 µM in data set [1] (setting [4]), 0.084 µM in data set [1] (setting [5]), less than 1560 nM with HepG2 cells and 996 nM in data set [3]. For the same compound, the “% Control luminiscence” value in data set [2] is recorded as 85%.

Regarding `C=CCNC(CCCCC)c1ccc(OCCOc2ccc(C(CCCCC)NCC=C)cc2)cc1` (centres unmarked) [TCMDC-137483], the “Ratio IC50 HepG2/IC50 P. falciparum” value in data set [1] was 6.41. Also, the IC50 in data set [1] (setting [4]) was 0.91 µM; in data set [1] (setting [5]) it was 0.905 µM; in the data set on HepG2 cells it was 5800 nM; in data set [3], 567 nM. Besides, in data set [2], the “% Control luminiscence” value worked out at 100%.

With `CCCCC(NCC)c1ccc(OCCOc2ccc(C(CCCC)NCC)cc2)cc1` (centres unmarked) [TCMDC-137612], the “Ratio IC50 HepG2/IC50 P. falciparum” value in data set [1] stood at 14. For the same compound, the concentration for half-maximal inhibition (IC50) in data set [1] (setting [4]) is 0.42 µM; in data set [1] (setting [5]) it was 0.423 µM; in the data set on HepG2 cells, 6100 nM; in data set [3] it was 930 nM. Besides, in data set [2], the “% Control luminiscence” value is reported as 100%.

In the case of `CCCCCCC(N)c1ccc(OCCCOc2ccc(C(N)CCCCCC)cc2)cc1` (centres unmarked) [TCMDC-137621], the “Ratio IC50 HepG2/IC50 P. falciparum” value in data set [1] is on record as 36. Also, the half-maximal inhibitory concentration (IC50) in data set [1] (setting [4]) is 0.0533 µM; in data set [1] (setting [5]), 0.053 µM; in the data set on HepG2 cells, 1900 nM; in data set [3], 1140 nM. For the same compound, in data set [2], the “% Control luminiscence” value is on record as 100%.

In the case of `COc1ccc(CNCCCCCCNCc2ccc(OC)c3ccccc23)c2ccccc12` [TCMDC-137631], the “Ratio IC50 HepG2/IC50 P. falciparum” value in data set [1] came out at 6. The IC50 in data set [1] (setting [4]) was 0.51 µM; in data set [1] (setting [5]), 0.505 µM; in the data set on HepG2 cells it was 3060 nM; in data set [3], 581 nM. The “% Control luminiscence” value in data set [2] turned out to be 91%.

With `CN1CCN(CCNc2c3ccccc3nc3c2ccc2ccccc23)CC1` [TCMDC-137723], in data set [1], the “Ratio IC50 HepG2/IC50 P. falciparum” value came to 17. Further, the IC50 in data set [1] (setting [4]) was 0.39 µM; in data set [1] (setting [5]) it was 0.387 µM; in the data set on HepG2 cells, 6600 nM; in data set [3], 606 nM. In addition, the “% Control luminiscence” value in data set [2] was 100%.

In the case of `c1cc(C2=NC3CCCCC3N2)ccc1OCCCCCOc1ccc(C2=NC3CCCCC3N2)cc1` (centres unmarked) [TCMDC-137802], in data set [1], the “Ratio IC50 HepG2/IC50 P. falciparum” value was 13. The IC50 in data set [1] (setting [4]) was 0.28 µM; with HepG2 cells, 3740 nM; in data set [3], 228 nM. Besides, the “% Control luminiscence” value in data set [2] stood at 100%.

`Nc1nc(N)c2c(ccc3c2ccn3Cc2ccc(-c3ccccc3)cc2)n1` [TCMDC-137813]: the “Ratio IC50 HepG2/IC50 P. falciparum” value in data set [1] was 1.1. For the same compound, the half-inhibitory concentration (IC50) in data set [1] (setting [4]) was 1.45 µM; in data set [1] (setting [5]), 1.45 µM; in the data set on HepG2 cells, 1600 nM; in data set [3], 48 nM. Moreover, the “% Control luminiscence” value in data set [2] was found to be 100%.

With `CN(CCCNCc1cccc2ccccc12)CCCNCc1cccc2ccccc12` [TCMDC-137905], the “Ratio IC50 HepG2/IC50 P. falciparum” value in data set [1] was determined as 25. In addition, the 50% inhibitory concentration (IC50) in data set [1] (setting [4]) is 0.23 µM; in the data set with HepG2 cells, 5720 nM; in data set [3], 722 nM. Moreover, the “% Control luminiscence” value in data set [2] is recorded as 100%.

In the case of `CN(CCCNCc1ccc2ccccc2c1)CCCNCc1ccc2ccccc2c1` [TCMDC-137908], the “Ratio IC50 HepG2/IC50 P. falciparum” value in data set [1] was determined as 94. The IC50 was 0.05 µM in data set [1] (setting [4]), 4680 nM in the data set on HepG2 cells and 391 nM in data set [3]. The “% Control luminiscence” value in data set [2] was 100%.
